Holding throughout (format): cell-based
Assay [1] concerns the target T1, INDY (Homo sapiens, UniProt Q86YT5). Briefly: 14C-citrate uptake in HepG2 cells endogenously expressing INDY (NaCT). Particulars: endogenous INDY. Put shortly: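 HepG2 cells, which express INDY endogenously, were preincubated with compound for 5 min at 37 °C in pH 6.5 Na+ citrate uptake buffer. 14C-citrate ([…]) was then added for 90 min at 37 °C. After washing and NaOH lysis, uptake was measured by scintillation counting, with 5 mM citrate as positive control.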

In another assay the target is T2, GLT-1 (Homo sapiens, UniProt P43004).
T2 construct: host or cells: HEK293 (virus made in GP293 packaging cells)
T2 sequence (P43004 whole entry): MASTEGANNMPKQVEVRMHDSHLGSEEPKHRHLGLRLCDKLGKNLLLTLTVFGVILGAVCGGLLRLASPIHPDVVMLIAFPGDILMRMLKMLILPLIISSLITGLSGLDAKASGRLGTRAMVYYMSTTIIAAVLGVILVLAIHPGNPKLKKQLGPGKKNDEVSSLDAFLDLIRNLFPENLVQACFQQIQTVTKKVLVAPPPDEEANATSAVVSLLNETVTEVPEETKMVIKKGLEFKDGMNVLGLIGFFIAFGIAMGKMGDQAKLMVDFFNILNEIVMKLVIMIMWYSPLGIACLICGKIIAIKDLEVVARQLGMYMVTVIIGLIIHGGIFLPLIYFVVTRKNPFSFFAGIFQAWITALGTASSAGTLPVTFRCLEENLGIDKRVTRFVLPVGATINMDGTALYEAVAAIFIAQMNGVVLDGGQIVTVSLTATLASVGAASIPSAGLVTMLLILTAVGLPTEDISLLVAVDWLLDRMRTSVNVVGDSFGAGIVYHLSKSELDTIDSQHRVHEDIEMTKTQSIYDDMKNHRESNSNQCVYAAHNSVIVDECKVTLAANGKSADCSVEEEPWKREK
Kind of assay: 3H-glutamate uptake counter assay in HEK293 cells overexpressing human GLT-1. The procedure: The compound was obtained by screening of a library containing more than 50,000 lead-like compounds and fragments. The library was tested using a functional citrate uptake assay with HEK293 cells overexpressing recombinant human INDY. The following hit confirmation was conducted in the same assay system. To confirm the activity of selected compounds on the target INDY another cell assay was conducted. In this assay system citrate uptake was measured using HepG2 cells which endogenously express INDY. Furthermore selectivity of selected compounds was tested for two other transporters in different assay systems. The first transporter was the glutamate transporter GLT-1 tested in a glutamate uptake assays using HEK293 cells overexpressing recombinant human GLT-1. The second transporter was the glucose transporter GLUT1 tested in a glucose uptake assay using Huh-7 cells which endogenously express GLUT1. Compounds were considered to be selective with an at least 5-fold higher activity for INDY than for the other two transporters.
Cells were maintained in cell medium using cell culture grade flasks (CellSTACK Corning, 500 cm2 dishes or T175 depending on cell number). The selection antibiotic and G418 (800 μg/ml) was added during cultivation but not for seeding into assay plates. For splitting, cells were washed with PBS (w/o Ca2+, Mg2+, phenol red) and detached with Trypsin/EDTA. Throughout cultivation cells were kept sub-confluent. Detached cells (50,000 cells/well) were seeded in 96-well plates (white, clear bottom from Corning #655098) and incubated over night before usage in the assay. The following media were used. For HEK293 cells expressing INDY MEM (PAA)+10% FCS+1×P/S+2 mM L-Gln; for HEK293 cells expressing GLT-1 DMEM (Gibco)+10% FCS+400 µg/ml G418; for Huh7 cells DMEM (Gibco)+10% FCS+2 mM L-Gin (+1×P/S); for HepG2 cells MEM (PAA, Cat # E15-024)+10% FCS+2 mM L-Gin+1×NEAA+1 mM Na-Pyruvat
The following assay buffers for the particular uptake reaction were used. Citrate uptake buffer: 120 mM NaCl, 5.4 mM KCl, 0.8 mM MgSO4, 5 mM glucose, 1.8 mM CaCl2, 25 mM Hepes, 25 mM MES, pH 6.5. Glutamate uptake buffer: HBSS, 1 mM CaCl2, 1 mM MgCl2, 20 mM Hepes pH 7.4. Glucose uptake buffer: 25 mM Hepes+25 mM MES pH 7.4, 120 mM NaCl, 5.4 mM KCl, 1.8 mM CaCl2, 0.8 mM MgSO4.
As a counter assay, Glutamate uptake by the GLT-1 transporter was used. The principle of the assay is to measure the uptake of ^3H labelled glutamate into HEK cells, which overexpress human GLT-1.
The generation of a GLT-1 cell line was performed as follows: human GLT11 isoform sv1 cDNA (Origene # RC223924) was cloned into vector pFB-Neo-CMV-hGLT1 using QIAfilter Plasmid Midi Kit (Qiagen). Virus was generated in GP293 packaging cells (transfection of plasmid with Lipofectamine 2000+OptiMEM). For transfection into HEK cells GP293, supernatant containing virus was passed through a 0.45 micron sterile filter and DEAE-dextran was added at […] final concentration. The solution was used to transfect HEK293 cells at 37° C., 8.5% CO2. After 24 h selection marker G418 at 400 μg/ml was added and cultivation medium performed in DMEM 10% FBS.
The assay was performed in a 96-well format using repeated washing steps, cell lysis and addition of scintillation fluid. Assay buffer was HBSS, 1 mM CaCl2, 1 mM MgCl2, […] pH 7.4. Cells were seeded into white clear-bottom 96-well plates (50,000/well) in the presence of Poly-D-Lysine and incubated at 37° C. for 16-24 hours. Subsequently the plates were washed once with assay buffer using automated washing/LS 405 Selectors, BioTek ending with a buffer volume of 40 μl. Then 5 μl of compound solution in assay buffer was added and incubated for 20 min at 37° C. in cell incubator, HERA cell Heraeus. Afterwards 10 μl of substrate 3H-Glu (3 nM) were added and incubated for another 20 min at 37° C. in cell incubator, HERAcell. Then the plates were washed once with 200 μl cold assay buffer and 150 μl scintillation fluid was added. […]

Assay [2] deals with T1, INDY. Briefly: 14C-citrate uptake in HEK293 cells overexpressing recombinant human INDY (NaCT). Details: expressed in transfected cells; host or cells: HEK293. A digest of the protocol: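 HEK293 cells overexpressing human NaCT, 50,000/well, preincubated 5-30 min at 37 °C with compound in pH 6.5 Na+ buffer. 14C-citrate ([…]) uptake then ran 20-90 min at 37 °C, followed by ice-cold washes, NaOH lysis and scintillation counting. 10 mM citrate served as positive control.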

Molecules are shown by their SMILES. Some results are limits rather than exact numbers.

T1 sequence (Q86YT5 whole entry): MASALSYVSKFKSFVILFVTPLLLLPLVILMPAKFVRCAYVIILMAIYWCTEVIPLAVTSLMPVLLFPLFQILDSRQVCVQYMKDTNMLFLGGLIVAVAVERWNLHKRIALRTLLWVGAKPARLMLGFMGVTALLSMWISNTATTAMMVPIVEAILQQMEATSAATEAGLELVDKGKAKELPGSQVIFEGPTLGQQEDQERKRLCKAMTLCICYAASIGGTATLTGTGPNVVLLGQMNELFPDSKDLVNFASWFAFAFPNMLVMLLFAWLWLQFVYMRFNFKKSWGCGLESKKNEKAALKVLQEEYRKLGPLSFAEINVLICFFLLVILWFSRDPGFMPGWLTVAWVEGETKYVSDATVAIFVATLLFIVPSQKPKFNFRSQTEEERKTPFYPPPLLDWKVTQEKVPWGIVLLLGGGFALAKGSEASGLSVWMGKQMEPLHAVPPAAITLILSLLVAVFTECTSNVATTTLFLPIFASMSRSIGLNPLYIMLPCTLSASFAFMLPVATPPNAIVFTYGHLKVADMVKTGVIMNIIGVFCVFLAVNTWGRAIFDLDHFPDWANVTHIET

As to `O=C(NCc1ccccc1F)C1CCN(S(=O)(=O)c2ccc(OC(F)(F)F)cc2)CC1` [Example 29, N-[(2-fluorophenyl)methyl]-1-[4-(trifluoromethoxy)benzenesulfonyl]piperidine-4-carboxamide], the values for the IC50 against INDY [1], on GLT-1 and at INDY [2] were 0.4 µM, greater than 20 µM and 0.5 µM, respectively.

`CC(C)(C)c1ccc(S(=O)(=O)N2CCC(C(=O)NCc3ccccn3)CC2)cc1` [Example 37, 1-(4-tert-butylbenzenesulfonyl)-N-[(pyridin-2-yl)methyl]piperidine-4-carboxamide]: the IC50 at INDY [1] is 1.1 µM; at GLT-1 it was greater than 20 µM; on INDY [2], 0.8 µM.

Turning to `O=C(NCc1ccccn1)C1CCN(S(=O)(=O)c2cccc(S(F)(F)(F)(F)F)c2)CC1` [Example 85, 1-[3-(pentafluoro-lambda6-sulfanyl)benzenesulfonyl]-N-[(pyridin-2-yl)methyl]pipendine-4-carboxamide], the IC50 against INDY [1] was determined as 3 µM; on INDY [2], 6.4 µM.

Turning to `O=C(NCc1ccccn1)C1CCN(S(=O)(=O)c2ccc(I)cc2)CC1` [Example 95, 1-(4-iodobenzenesulfonyl)-N-[(pyridin-2-yl)methyl]piperidine-4-carboxamide], the half-maximal inhibitory concentration (IC50) came to 2.4 µM against INDY [1] and 5.5 µM on INDY [2].

Turning to `O=C(NCc1ccccn1)C1CCN(S(=O)(=O)c2ccc(C3CC3)cc2)CC1` [Example 97, 1-(4-cyclopropylbenzenesulfonyl)-N-[(pyridin-2-yl)methyl]piperidine-4-carboxamide], the IC50 was determined as 3.8 µM against INDY [1] and 9.2 µM on INDY [2].

For `O=C(NCc1ccccn1)C1CCN(S(=O)(=O)c2ccc(CC(F)(F)F)cc2)CC1` [Example 99, N-[(pyridin-2-yl)methyl]-1-[4-(2,2,2-trifluoroethyl)benzenesulfonyl]piperidine-4-carboxamide], the IC50 turned out to be 3.2 µM against INDY [1] and 6.3 µM at INDY [2].

As to `O=C(NCc1cccc(O)c1)C1CCN(S(=O)(=O)c2cc(Cl)cc(Cl)c2)CC1` [Example 114, 1-(3,5-dichlorobenzenesulfonyl)-N-[(3-hydroxyphenyl)methyl]piperidine-4-carboxamide], the IC50 against INDY [1] came to 0.6 µM; at INDY [2] it was 0.7 µM.

For the molecule `O=C(NCc1cccc(F)c1)C1CCN(S(=O)(=O)c2cc(Cl)cc(Cl)c2)CC1` [Example 115, 1-(3,5-dichlorobenzenesulfonyl)-N-[(3-fluorophenyl)methyl]piperidine-4-carboxamide], the IC50 on INDY [1] is 0.1 µM; on INDY [2] it was 0.2 µM.

Take `O=C(NCc1ccccn1)C1CCN(S(=O)(=O)c2cc(Cl)cc(C3COC3)c2)CC1` [Example 116, 1-[3-chloro-5-(oxetan-3-yl)benzenesulfonyl]-N-[(pyridin-2-yl)methyl]piperidine-4-carboxamide]: the results for the IC50 at INDY [1] and on INDY [2] were 2.3 µM and 5.9 µM, respectively.

Turning to `O=C(NCc1cccc(CO)c1)C1CCN(S(=O)(=O)c2cc(Cl)cc(Cl)c2)CC1` [Example 117, 1-(3,5-dichlorobenzenesulfonyl)-N-{[3-(hydroxymethyl)phenyl]methyl}piperidine-4-carboxamide], the values for the IC50 on INDY [1] and at INDY [2] were 0.5 µM and 0.8 µM, respectively.

`COC(=O)c1cccc(CNC(=O)C2CCN(S(=O)(=O)c3cc(Cl)cc(Cl)c3)CC2)c1` [Example 118, methyl 3-({[1-(3,5-dichlorobenzenesulfonyl)piperidin-4-yl]formamido}methyl)benzoate]: the IC50 was determined as 4 µM on INDY [1] and 5.7 µM on INDY [2].

For `O=C(NCc1ccccn1)C1CN(S(=O)(=O)c2cc(Cl)cc(Cl)c2)C1` [Example 120, 1-(3,5-dichlorobenzenesulfonyl)-N-[(pyridin-2-yl)methyl]azetidine-3-carboxamide], the IC50 was determined as 2.8 µM on INDY [1] and 7.5 µM on INDY [2].

Consider `O=C(NCc1ccc(O)cc1)C1CCN(S(=O)(=O)c2cc(Cl)cc(Cl)c2)CC1` [Example 123, 1-(3,5-dichlorobenzenesulfonyl)-N-[(4-hydroxyphenyl)methyl]piperidine-4-carboxamide], for which the IC50 was 1.3 µM on INDY [1] and 2 µM at INDY [2].

As to `Nc1ccc(CNC(=O)C2CCN(S(=O)(=O)c3cc(Cl)cc(Cl)c3)CC2)cc1` [Example 124, N-[(4-aminophenyl)methyl]-1-(3,5-dichlorobenzenesulfonyl)piperidine-4-carboxamide], the IC50 against INDY [1] was determined as 0.9 µM; at INDY [2] it was 1.8 µM.

On to `O=C(NCc1ccccn1)C1CCN(S(=O)(=O)c2ccc(C3(C(F)(F)F)CC3)cc2)CC1` [Example 125, N-[(pyridin-2-yl)methyl]-1-{4-[1-(trifluoromethyl)cyclopropyl]benzenesulfonyl}piperidine-4-carboxamide], for which the IC50 stood at 0.5 µM against INDY [1] and 0.8 µM on INDY [2].

For the molecule `O=C(NCc1ccccn1)C1CCN(S(=O)(=O)c2cc(Br)cc(C(F)(F)F)c2)CC1` [Example 126, 1-[3-bromo-5-(trifluoromethyl)benzenesulfonyl]-N-[(pyridin-2-yl)methyl]piperidine-4-carboxamide], the IC50 against INDY [1] worked out at 0.4 µM; on INDY [2], 0.5 µM.

As to `O=C(NCc1ccccn1)C1CCN(S(=O)(=O)c2cc(C(F)(F)F)cc(C(F)(F)F)c2)CC1` [Example 127, 1-[3,5-bis(trifluoromethyl)benzenesulfonyl]-N-[(pyridin-2-yl)methyl]piperidine-4-carboxamide], the IC50 stood at 1.2 µM on INDY [1] and 3.2 µM on INDY [2].

Turning to `O=C(NCc1ccccn1)C1CCN(S(=O)(=O)c2ccc(C3CCCC3)cc2)CC1` [Example 129, 1-(4-cyclopentylbenzenesulfonyl)-N-[(pyridin-2-yl)methyl]piperidine-4-carboxamide], the IC50 on INDY [1] turned out to be 7.4 µM; at INDY [2] it was 1.6 µM.

Take `O=C(NCc1ccccn1)C1CCN(S(=O)(=O)c2cc(Cl)cc(C(F)(F)F)c2)CC1` [Example 130, 1-[3-chloro-5-(trifluoromethyl)benzenesulfonyl]-N-[(pyridin-2-yl)methyl]piperidine-4-carboxamide]: the IC50 on INDY [1] was 0.5 µM; at INDY [2], 0.7 µM.

Consider `O=C(NCc1ccccn1)C1CCN(S(=O)(=O)c2ccc(C3CCCCC3)cc2)CC1` [Example 131, 1-(4-cyclohexylbenzenesulfonyl)-N-[(pyridin-2-yl)methyl]piperidine-4-carboxamide], for which the results for the IC50 against INDY [1] and at INDY [2] were 4.7 µM and 6.1 µM, respectively.

In the case of `O=C(NCc1ccc(F)cc1)C1CCN(S(=O)(=O)c2cc(Cl)cc(Cl)c2)CC1` [Example 132, 1-(3,5-dichlorobenzenesulfonyl)-N-[(4-fluorophenyl)methyl]piperidine-4-carboxamide], the values for the IC50 at INDY [1] and on INDY [2] were 0.7 µM and 2 µM, respectively.

For the origin of these results see patent US20200087258A1, “INHIBITOR OF CITRATE TRANSPORTER AND THEIR USE IN THERAPY” (Eternygen GmbH, priority 2017, published 2020).
